This assay concerns Saccharomyces cerevisiae ABC16-Green Monster. As to the kind of experiment: growth inhibition at single dose (up to 150 µM), below the 70% cut-off for dose-response; higher = more potent. The note with it: 18 h; 30 °C; YPD. The gist of the method:
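The entry is percent growth inhibition of drug-sensitive S. cerevisiae ABC16-Green Monster cells. After overnight growth in YPD at 30 °C, cells were diluted to OD600 0.1–0.2 and exposed to each library compound at 150 µM in 200 µl per well, in biological duplicates with untreated cultures beside them, and OD600 was read at 0 h and after 18 h at 30 °C. Any compound under 70% in both replicates was not carried to dose-response.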

Turning to `O=C(c1ccccc1F)N(Cc1ccc(Cl)cc1)c1ccccn1`, the “growth inhibition at single dose” value was under 70%. With `CC(C)(C)OC(=O)N1CCN(c2cc(-c3ccc(Oc4ccccc4)cc3)n[nH]2)CC1` the figure was under 70%. The figure for `COc1cccc(Cn2nc(C(=O)NC3CC3)c3c2CCN(Cc2cc4c(cc2Cl)OCO4)C3)c1` is under 70%; for `CCOC(=O)c1sc2ncn(-n3c(C)ccc3C)c(=O)c2c1C` it is under 70%; for `OC1CCN(c2nn3cc(-c4ccccc4)nc3s2)CC1` it is under 70%. With `O=C(Nc1ncccc1O)c1ccc(S(=O)(=O)NCc2ccco2)cc1` the figure was under 70%.

As for `CC(Oc1cccc(Cl)c1)C(=O)Nc1ccc2oc(-c3ccncc3)nc2c1` (stereo unspecified), the “growth inhibition at single dose” value was under 70%. With `Cc1ccc(/C=C/C(=O)NC2=NCCS2)c(Br)c1` the figure was under 70%; with `O=S(=O)(c1ccc2ccccc2c1)N1CCCC1c1nnc2ccccn12` (stereo unspecified), under 70%. With `Cc1cc(C)c2c(C)c(C(=O)Nc3nc4ccccc4s3)sc2n1` the figure was under 70%; with `O=C(c1cc(-c2ccccc2)n[nH]1)N1CCN(S(=O)(=O)c2ccccc2)CC1`, under 70%. The figure for `Cc1ccc(CC(=O)NCc2ccc(C#N)cc2)cc1` is under 70%; for `O=C(Nc1ccnc(-c2cccnc2)n1)c1cc(C(F)(F)F)cc(C(F)(F)F)c1` it is under 70%; for `Cn1ncc(C#N)c1NC(=O)c1cccc(Oc2ccccc2)c1` it is under 70%. In the case of `COc1ccc2cc(CNc3ncnc4n[nH]cc34)ccc2c1`, the “growth inhibition at single dose” value was under 70%. The figure for `CC(C)Cn1c2c(c(O)c(C(=O)Nc3ncccc3O)c1=O)CCCC2` is under 70%; for `CC(C)c1ccc2c(c1)/C(=N/NC(=O)c1ccccc1F)C(=O)N2` it is under 70%. Turning to `O=[N+]([O-])c1ccc(C=NNc2nc3ccccc3[nH]2)cc1`, the “growth inhibition at single dose” value is under 70%. In the case of `CC(=O)N1CCc2cc(NC(=O)c3cc(C)n(C4CCCCC4)c3C)ccc21`, the “growth inhibition at single dose” value was under 70%. With `CS(=O)(=O)c1ccccc1C(=O)N(Cc1ccccc1)c1ccccc1` the figure was under 70%; with `COc1cc(Br)cc2cc(C(=O)Nc3cccc(C(F)(F)F)c3)c(=O)oc12`, under 70%. Consider `CCCCCn1c(=N)n(CC(O)COc2cccc(C)c2)c2ccccc21` (stereo unspecified), for which the “growth inhibition at single dose” value was under 70%. For `O=C(NC1CCN(Cc2ccccc2)CC1)c1cc(-c2cccnc2)nc2ccc(Cl)cc12`, the “growth inhibition at single dose” value was under 70%. With `Cc1ccc2[nH]c3c(c2c1)CCCC3NCCCN(C)C` (stereo unspecified), the “growth inhibition at single dose” value was under 70%. With `COc1ccccc1CN1CCN2C(=O)[C@@H](Cc3ccc(O)cc3)NC(=O)[C@H]2C1` the figure was under 70%; with `COc1ccc(-[n+]2c(C)cn3c2CCc2ccccc2-3)cc1`, under 70%. With `CN(Cc1ccc(C(N)=O)cc1)c1ncnc2ccccc12` the figure was under 70%; with `Clc1ccc2nc(CSc3nnc4c(n3)[nH]c3ccccc34)cn2c1`, under 70%. With `O=C(CCc1ccccc1)c1ccccc1OCC(O)CN1CCCCC1` (stereo unspecified) the figure was under 70%; with `Cc1ccc2[nH]c(C3CCCNC3)c(-c3ccncc3)c2c1` (stereo unspecified), under 70%; with `CCc1ccc(-n2nnnc2-c2cnc(N)nc2-c2ccccc2)cc1`, under 70%. Turning to `CCOc1cc(CNC(C)C(O)c2ccccc2)cc(Cl)c1OCC` (stereo unspecified), the “growth inhibition at single dose” value is under 70%. With `Nc1ncnc2[nH]nc(Cc3cccc4ccccc34)c12` the figure was under 70%; with `O=C(Nc1ccc(N2CCNCC2)nc1)c1oc(-c2ccccc2)nc1C(F)(F)F`, under 70%.

In the case of `O=C(Nc1ccc(Oc2ccc3ccccc3c2)cc1)c1ccccc1`, the “growth inhibition at single dose” value is under 70%. The figure for `O=C(/C=C/c1ccc([N+](=O)[O-])cc1)NCC(=O)N1CCN(S(=O)(=O)c2ccc(Cl)cc2)CC1` is under 70%; for `Cc1noc(C)c1C(=O)OCC(=O)c1cc(C)n(-c2ccccc2F)c1C` it is under 70%.

Consider `CCC(C)NCC(O)(c1ccc(Cl)cc1)c1ccc(Cl)cc1` (stereo unspecified), for which the “growth inhibition at single dose” value was under 70%. With `Cc1cc(C(=O)Nc2ccc(Cl)cc2)c(C)n1-c1ccccc1` the figure was under 70%; with `COc1ccc2c(c1)CCCN2C(=O)c1occc1C`, under 70%. Take `COc1cc(C(=O)c2c(N)c(C#N)cn3c2nc2ccccc23)cc(OC)c1OC`: the “growth inhibition at single dose” value is under 70%.

In the case of `O=C(Nc1ccc(N2CCOCC2)cn1)c1ccccc1`, the “growth inhibition at single dose” value is under 70%. In the case of `CO/N=C(\C(=O)OC)c1ccccc1CO/N=C(\C)c1cccc(C(F)(F)F)c1`, the “growth inhibition at single dose” value was under 70%. With `CN(CC(=O)Nc1ccc(Cl)c(C(F)(F)F)c1)Cc1ccc(O)c2ncccc12` the figure was under 70%. With `COc1ccc(C(=O)Nc2ccc3nc(N4CCCCC4)cc(C)c3c2)cc1OC` the figure was under 70%; with `CC1CC(Nc2ccccc2)c2ccccc2N1S(=O)(=O)c1ccc(Br)cc1` (stereo unspecified), under 70%.

As to `CC1(COc2ccc(N3CCC(Oc4ccc(OC(F)(F)F)cc4)CC3)cc2)Cn2cc([N+](=O)[O-])nc2O1` (stereo unspecified), the “growth inhibition at single dose” value was under 70%. The figure for `O=C(Cn1ncc(Cl)c(Cl)c1=O)N1N=C(c2ccco2)CC1c1cccs1` (stereo unspecified) is under 70%. In the case of `COc1ccc(CCNC(=O)c2cc(S(=O)(=O)N3CC(C)CC(C)C3)ccc2Sc2ccc(F)cc2)cc1OC` (stereo unspecified), the “growth inhibition at single dose” value is under 70%. The figure for `COc1cc(C(=O)c2c(-c3ccccc3)cc3ccccn23)cc(OC)c1OC` is under 70%.

As for `CCOc1ccc(C=Cc2nc(=O)c3ccccc3o2)cc1`, the “growth inhibition at single dose” value was under 70%. The figure for `C[C@H]1c2cccc(O)c2C(=O)C2=C(O)[C@]3(O)C(=O)C(C(N)=O)=C(O)[C@@H](N(C)C)[C@@H]3[C@@H](O)[C@@H]21` is under 70%; for `COc1ccc(CCn2nc(C(=O)NC3CC3)c3c2CCN(C(=O)c2cc(C)n[nH]2)C3)cc1` it is under 70%.

For the compound `c1ccc2sc(-c3nc4ccccc4s3)nc2c1`, the “growth inhibition at single dose” value is under 70%.

Regarding `CCCCc1ccc(NC(=O)Nc2ccc(O[C@H]3CCCC[C@@H]3N(C)c3ccccc3)c(F)c2)cc1`, the “growth inhibition at single dose” value was under 70%. The figure for `CCN(CC)CCNc1ccnc2cc(Cl)ccc12` is under 70%; for `CC1=C(C(=O)Nc2ccccc2)C(c2ccco2)C(C#N)=C(SCc2ccccc2Cl)N1` (stereo unspecified) it is under 70%; for `CCN(CC)CCn1c(=N)n(CC(O)c2ccc(Cl)c(Cl)c2)c2ccccc21` (stereo unspecified) it is under 70%.

On to `Cc1ccc(NC(=O)c2cc(C(C)(C)C)n(-c3ccccc3)c2C)cc1`, for which the “growth inhibition at single dose” value is under 70%. With `Clc1cc(Br)ccc1-c1ccc(CNCC2CCNCC2)o1` the figure was under 70%. The figure for `OC1=C2C(=Nc3ccccc3SC2c2ccc(Br)cc2)c2ccccc21` (stereo unspecified) is under 70%; for `CCOc1cccc(C2Nc3ccccc3C(=O)N2C2CC2)c1O` (stereo unspecified) it is under 70%. With `CCCc1ccc(-c2nc(-c3ccccc3)no2)cc1` the figure was under 70%; with `Cc1ccc2c(c1)s/c(=N/C(=O)c1cccs1)n2C`, under 70%. Consider `CCOC(=O)C1=C(C)N=c2sc(=Cc3ccccc3O)c(=O)n2C1c1ccc(OC)c2ccccc12` (stereo unspecified), for which the “growth inhibition at single dose” value was under 70%. The figure for `Nc1nc(N)c2c3c(sc2n1)CN(Cc1ccccc1)CC3` is under 70%.

On to `Cc1cccc(N2C(=O)C3C(C2=O)C2(c4ccccc4)C(=O)C3(c3ccccc3)C(c3ccc4c(c3)OCO4)=C2c2ccc3c(c2)OCO3)c1` (stereo unspecified), for which the “growth inhibition at single dose” value was under 70%. The figure for `Cc1nn(-c2ccccc2)c(C)c1-c1nc(-c2ccccc2)no1` is under 70%; for `CCOC(=O)c1cnc2c(C)cc(C)cc2c1Nc1ccc(OC)c(OC)c1` it is under 70%. As to `Cc1ccc(-c2nc3ccccc3o2)cc1NCc1cc(Cc2ccccc2)ccc1O`, the “growth inhibition at single dose” value is under 70%. With `CN(CC(=O)NC1CC1)C(=O)CNc1ccccc1Oc1ccccc1` the figure was under 70%. With `CCn1ncc2c(NC3CCOCC3)c(CNC(=O)c3ccnn3C)c(C)nc21`, the “growth inhibition at single dose” value is under 70%.

On to `CCN(CC)CCCN1CCN(C(=O)c2cccc(-c3noc(C(F)(F)F)n3)c2)CC1`, for which the “growth inhibition at single dose” value is under 70%. The figure for `CN(CCO)c1ccc(C(=O)c2ccc(N(C)CCO)cc2)cc1` is under 70%. With `Clc1ccc(CCNc2cc(-c3ccccc3)nc3ncnn23)cc1`, the “growth inhibition at single dose” value is under 70%. The figure for `N=c1n(CCN2CCCCC2)c2ccccc2n1CC(=O)c1ccc(Cl)c(Cl)c1` is under 70%; for `CCCCNCC(O)(c1ccc(Cl)cc1)c1ccc(Cl)cc1` it is under 70%. The figure for `CC[C@H](CO)NCCN[C@H](CC)CO` is under 70%; for `O=C(Nc1ccc(N2CCCCC2)c(Cl)c1)c1ccc(Br)o1` it is under 70%. The figure for `O=C(NC1CCCC1)c1ccc(N2CCC(NCc3cccc(C(F)(F)F)c3)CC2)cc1` is under 70%; for `O=C(Cc1ccccc1)NC(c1ccc(Cl)cc1)c1c(O)ccc2ccccc12` (stereo unspecified) it is under 70%.

The values above are taken from the supplement of paper PMC8837787.
